The source of these data is patent US10196365B2, “Quinazoline derivative, preparation method therefor, and pharmaceutical composition and application thereof” (ARROMAX PHARMATECH CO., LTD., priority 2014, dated 2019).

Assay type in all cases: cell-based
Assay [1] has as its system NCI H1975 (human non-small cell lung cancer cell lines). As to the kind of experiment: Growth inhibition test in tumor cells (CCK8), NCI-H1975. The note with it: 72 h.
Experimental: (§1) i) Logarithmic growth phase cells were collected and counted, the cells were suspended again with complete medium, the cell concentration was adjusted to an appropriate concentration (determined according to the results of cell density optimization test), inoculated to 96 plates, each of which with 100 mL cells suspension.
Assay [2] deals with HCC 827 (human non-small cell lung cancer cell line). As to the kind of experiment: Growth inhibition test in tumor cells (CCK8), HCC827. The note with it: HCC 827 cells, 72 h.
Experimental: as §1
Assay [3] relates to A431 (human epithelial carcinoma cell lines). As to the kind of experiment: Growth inhibition test in tumor cells (CCK8), A431. The note with it: A-431, 72 h.
Experimental: as §1
In assay [4] the test system is MDA-MB-453 (human breast cancer cell lines). As to the kind of experiment: Growth inhibition test in tumor cells (CCK8), MDA-MB-453. The settings on record: MDA-MB-453 cells, 72 h. On the procedure:
Growth Inhibition Tests of a Series of Compounds in Different Tumor Cells
i. Cell lines: A431 (human epithelial carcinoma cell lines), A549 (human lung cancer cell lines), NCI H1975 (human non-small cell lung cancer cell lines (HCC), HCC 827 (human non-small cell lung cancer cell line), MDA-MB-453 (human breast cancer cell lines)
MDA-MB-453 cell line: 90% L15+10% FBS; trypsin (a 0.25% (W/V) solution was prepared with […], 0.53 mM EDTA was added);
i) Logarithmic growth phase cells were collected and counted, the cells were suspended again with complete medium,
ii) The cell concentration was adjusted to an appropriate concentration, inoculated to 96 holes, each of which with 100 μL cells suspension.
iii) The cells were incubated in a 37° C., 100% relative humidity and 5% CO2 incubator, for 24 h.
i) Logarithmic growth phase cells were collected and counted, the cells were suspended again with complete medium, the cell concentration was adjusted to an appropriate concentration (determined according to the results of cell density optimization test), inoculated to 96 plates, each of which with […] cells suspension. The cells were incubated in a 37° C., 100% relative humidity and 5% CO2 incubator for 24 h.
ii) The test compounds were diluted to the corresponding concentration stated by culture medium, and the cells were inoculated as 25 μL/hole. The final concentration of the compound was from 10 μM to 0 μM, with a gradient of 4 times, and 10 concentration points totally.
iii) The cells were incubated in a 37° C., 100% relative humidity, 5% CO2 incubator for 72 h.
iv) Absorbing the culture medium, the complete medium containing 10% CCK-8 was added and incubated in the incubator of 37° C. for 2-4 h.
v) After a slight shake, the absorbance at 450 nm was measured by SpectraMax M5 Microplate Reader, taking the absorbance at 650 nm as a reference, the inhibition rate was calculated.
The IC50 curve fitting was performed by using the software Graphpad Prism 5 and the calculation formula log (inhibitor) vs. response to calculate the IC50 value.

The structures appear in SMILES notation.

For `CCOCCOc1ccc(Nc2ncnc3cc(OCCOCC)c(NC(=O)/C=C/CN(C)C)cc23)cc1Cl` [Embodiment 17, (E)-N-(4-(3-chloro-4-(2-ethoxyethoxy)phenylamino)-7-(2-ethoxyethoxy)quinazolin-6-yl)-4-(dimethylamino)but-2-enamide], the IC50 (as a rule, the concentration that inhibits the measured activity by half) in assay [1] was determined as 6.17 nM; in assay [2], 0.343 nM; in assay [3], 13.7 nM; in assay [4], 2.53 nM.
The like results for `C=C(Cl)C(=O)Nc1cc2c(Nc3ccc(F)c(Cl)c3)ncnc2cc1OCCOCC` [Embodiment 27, N-(4-(3-chloro-4-fluorophenylamino)-7-(2-ethoxyethoxy)quinazolin-6-yl)2-chloroacrylamide] were, in that order, 37.1 nM, 33.2 nM, 369 nM and 3.72 nM.
For the compound `CCOCCOc1cc2ncnc(Nc3ccc(F)c(Cl)c3)c2cc1NC(=O)/C=C/Br` [Embodiment 30, (E)-N-(4-(3-chloro-4-fluorophenylamino)-7-(2-ethoxyethoxy)quinazolin-6-yl)-3-bromoacrylamide], the IC50 stood at 8.22 nM in assay [1], 4.87 nM in assay [2], 297 nM in assay [3] and 4 nM in assay [4].
Consider `CCOCCOc1cc2ncnc(Nc3ccc(F)c(Cl)c3)c2cc1NC(=O)/C=C\C#N` [Embodiment 38, (Z)—N-(4-(3-chloro-4-fluorophenylamino)-7-(2-ethoxyethoxy)quinazolin-6-yl)-3-cyanoacrylamide], for which the IC50 stood at 18.4 nM in assay [1], 5.56 nM in assay [2], 94.8 nM in assay [3] and 0.68 nM in assay [4].
For `CCOCCOc1cc2ncnc(Nc3ccc(NCCS(C)(=O)=O)c(Cl)c3)c2cc1NC(=O)/C=C/CN(C)C` [Embodiment 20, (E)-N-(4-(3-chloro-4-((2-(methylsulfonyl)ethyl)amino)phenylamino)-7-(2-ethoxyethoxy)quinazolin-6-yl)-4-(dimethylamino)but-2-enamide] the same measures were 65.6 nM, 0.538 nM, 6.49 nM and 12.7 nM.
In the case of `C=C(Br)C(=O)Nc1cc2c(Nc3ccc(F)c(Cl)c3)ncnc2cc1OCCOCC` [Embodiment 28, N-(4-(3-chloro-4-fluorophenylamino)-7-(2-ethoxyethoxy)quinazolin-6-yl)2-bromoacrylamide], the IC50 in assay [1] came out at 39.4 nM; in assay [2], 6.4 nM; in assay [3] it was 572 nM; in assay [4], 15.1 nM.
The like results for `C=C(F)C(=O)Nc1cc2c(Nc3ccc(F)c(Cl)c3)ncnc2cc1OCCOCC` [Embodiment 26, N-(4-(3-chloro-4-fluorophenylamino)-7-(2-ethoxyethoxy)quinazolin-6-yl)-2-fluoroacrylamide] were, in that order, 72.5 nM, 0.538 nM, 54.5 nM and 58.2 nM.
Turning to `CCOCCOc1cc2ncnc(Nc3ccc(F)c(Cl)c3)c2cc1NC(=O)/C=C/Cl` [Embodiment 31, (E)-N-(4-(3-chloro-4-fluorophenylamino)-7-(2-ethoxyethoxy)quinazolin-6-yl)-3-chloroacrylamide], the IC50 in assay [1] came to 7.43 nM.
As to `CCOCCOc1cc2ncnc(Nc3ccc(F)c(Cl)c3)c2cc1NC(=O)/C=C/C(=O)OC` [Embodiment 37, methyl (E)-4-(4-((3-chloro-4-fluorophenylamino)-7-(2-ethoxyethoxy)quinazolin-6-yl)amino)-4-oxobut-2-enoate], the IC50 in assay [1] came to 35.2 nM; in assay [2], 0.987 nM; in assay [3], 207 nM; in assay [4], 21.6 nM.
For `C#CC(=O)Nc1cc2c(Nc3ccc(F)c(Cl)c3)ncnc2cc1OCCOCC` [Embodiment 25, N-(4-(3-chloro-4-fluorophenylamino)-7-(2-ethoxyethoxy)quinazolin-6-yl)propiolamide] the same measures were 49.3 nM, 1.47 nM, 11.4 nM and 3.43 nM.
For `CCOCCOc1cc2ncnc(Nc3ccc(OCC(F)(F)F)c(Cl)c3)c2cc1NC(=O)/C=C/CN(C)C` [Embodiment 13, (E)-N-(4-(3-chloro-4-(2,2,2-trifluoroethoxy)phenylamino)-7-(2-ethoxyethoxy)quinazolin-6-yl)-4-(dimethylamino)but-2-enamide], the IC50 in assay [1] was 107 nM; in assay [2], 2.9 nM; in assay [3], 64.1 nM; in assay [4], 2.56 nM.
Turning to `CCOCCOc1cc2ncnc(Nc3ccc(OCCOC)c(Cl)c3)c2cc1NC(=O)/C=C/CN(C)C` [Embodiment 15, (E)-N-(4-(3-chloro-4-(2-methoxyethoxy)phenylamino)-7-(2-ethoxyethoxy)quinazolin-6-yl)-4-(dimethylamino)but-2-enamide], the IC50 in assay [1] is 7.3 nM; in assay [2] it was 3.43 nM; in assay [3] it was 20.1 nM; in assay [4] it was 1.66 nM.
The like results for `CCOCCOc1cc2ncnc(Nc3ccc(F)c(Cl)c3)c2cc1NC(=O)/C=C/C(F)(F)F` [Embodiment 36, (E)-N-(4-(3-chloro-4-fluorophenylamino)-7-(2-ethoxyethoxy)quinazolin-6-yl)-4,4,4-trifluorobut-2-enamide] were, in that order, 27.6 nM, 0.153 nM, 148 nM and 18.3 nM.
Consider `C=CC(=O)Nc1cc2c(Nc3ccc(F)c(Cl)c3)ncnc2cc1OCCOCC` [Embodiment 22, N-(4-(3-chloro-4-fluorophenylamino)-7-(2-ethoxyethoxy)quinazolin-6-yl)acrylamide], for which the IC50 turned out to be 51.8 nM in assay [1], 0.153 nM in assay [2], 6.01 nM in assay [3] and 5.67 nM in assay [4].
For `C=CS(=O)(=O)Nc1cc2c(Nc3ccc(F)c(Cl)c3)ncnc2cc1OCCOCC` [Embodiment 24, N-(4-(3-chloro-4-fluorophenylamino)-7-(2-ethoxyethoxy)quinazolin-6-yl)ethenesulfonamide] the same measures were 13.7 nM, 3.95 nM, 3.38 nM and 130 nM.
